In US12171758B1, “Crystalline salt forms of kappa opioid receptor antagonist and products and methods related thereto” (Neumora Therapeutics, Inc., priority 2023, dated 2024):
“And” between values parts separate entries of the source, which are not always exact repeats. Identical values can stand only once.

Tests used:
Format in all cases: physicochemical
[1] = Molar extinction coefficient (MEC) to evaluate photo reactivity; conditions: for MEC Ave.: average of duplicate
Protocol: The actual weight was recorded. The solid was dissolved and diluted to volume with ACN:H2O (1:1, v/v). Stock solutions were prepared in duplicate. The stock solutions were diluted by 50 times by transferring 1 mL of stock solution into 50-mL volumetric flask and then diluted to volume with ACN/water ACN:H2O (1:1, v/v). The 1/50 solutions were used to collect spectra with full wave scanning from 190 nm to 700 nm and absorbance at 235 nm, 270 nm, 290 nm and 365 nm using spectrophotometer with the background subtracted. MEC was then calculated by the following equation: MEC(L mol−1 cm−1)=Absorbance/conc.(mol/L)/Cell length(cm) Log D7.6 Measurements Preparation of Solvents • 0.1 M KH2PO4: 1.36 g of solid KH2PO4 was added into a 100-mL volumetric flask, the solid was dissolved with ultrapure water and diluted to volume. • 0.1 M K2HPO4: 1.73 g of solid K2HPO4 was added into a 100-mL volumetric flask, the solid was dissolved with ultrapure water and diluted to volume. • 100 mL of 0.1 M K2HPO4 solution and 30 mL of 0.1 M KH2PO4 was transferred to a 250-mL beaker and mixed. Then, pH was adjusted 7.4 with the KH2PO4 solution. • Octanol and aqueous buffer were pre-equilibrated by adding 10 mL octanol and 10 mL aqueous buffer into a 20-mL glass vial and agitating the vial for 24 hrs. The mutually saturated octanol and aqueous buffer were then separated after phase separation. Sample Set up • Approximately 1.0 mg solids were weighted into a 3-mL glass vial with 1.0 mL of octanol inside, and dissolution was accelerated by ultrasonication. Then, 1.0 mL of complementary aqueous buffer was added into the vial. Samples were prepared in triplicate. The glass vial was sealed and mixed on a rotary mixer at 25° C. for 24 hrs. Sample Analysis and Data Calculation • After phase separated, the phases were physically separated, and the concentrations of compounds in each phase were determined by HPLC using the HPLC conditions and parameters in Table 5. • Distribution coefficient, referred to as Dow, was calculated as the concentration of the test compound (both ionized and unionized) in the octanol phase divided by the corresponding concentration in the aqueous phase. Log D7.6 was calculated as an average of the log 10 of Dow based on three runs. Solubility/Stability Measurements in pH Buffers Stock Solution Preparation • 0.2 M Hydrochloric Acid: 166 μL of 12 M hydrochloric acid is added into a 10-mL volumetric flask, and the resulting mixture was diluted to volume with purified water and mixed. • 0.2 M Sodium Hydroxide: 80.0 mg of sodium hydroxide was weighted into a 10-mL volumetric flask. The solid was dissolved with volume of purified water, diluted to volume and mixed. • 0.2 M Potassium Chloride: 148.8 mg of potassium chloride was weighted into a 10-mL volumetric flask. The solid was dissolved with volume of purified water, diluted to volume and mixed. • 0.2 M Potassium Phosphate, Monobasic: 271.5 mg of monobasic potassium phosphate (KH2PO4) was weighed into a 10-mL volumetric flask. The solid was dissolved with appropriate volume of purified water, diluted to volume and mixed. • 0.2 M Boric Acid and Potassium Chloride: 124.3 mg of boric acid (H3BO3) and 149.5 mg of potassium chloride (KCl) were mixed into a 10-mL volumetric flask. The solid was dissolved with appropriate volume of purified water, diluted to volume and mixed. pH Buffers Preparation • 50 mM KCl pH 2.0 buffer: 2.5 mL of 0.2 M potassium chloride solution and 0.65 mL of 0.2 M hydrochloric acid solution were transferred to a 10-mL volumetric flask. Purified water is added to the target volume, and pH is adjusted to 2.0. The mixture was then diluted to volume with purified water, mixed, and pH was measured with a pH meter. • 50 mM citrate pH 4.0 buffer: 65.3 mg of citric acid (monohydrate) and 56.9 mg of sodium citrate (dihydrate) were transferred to a 10-mL volumetric flask, purified water was added to obtain the target volume, and pH was adjust to 4.0. […]

[2] = Log D7.6 shake-flask (octanol/phosphate buffer) and Log P calculation; conditions: pH 7.6
Protocol: The actual weight was recorded. The solid was dissolved and diluted to volume with ACN:H2O (1:1, v/v). Stock solutions were prepared in duplicate. The stock solutions were diluted by 50 times by transferring 1 mL of stock solution into 50-mL volumetric flask and then diluted to volume with ACN/water ACN:H2O (1:1, v/v). The 1/50 solutions were used to collect spectra with full wave scanning from 190 nm to 700 nm and absorbance at 235 nm, 270 nm, 290 nm and 365 nm using spectrophotometer with the background subtracted. MEC was then calculated by the following equation: MEC(L mol−1 cm−1)=Absorbance/conc.(mol/L)/Cell length(cm) Log D7.6 Measurements Preparation of Solvents • 0.1 M KH2PO4: 1.36 g of solid KH2PO4 was added into a 100-mL volumetric flask, the solid was dissolved with ultrapure water and diluted to volume. • 0.1 M K2HPO4: 1.73 g of solid K2HPO4 was added into a 100-mL volumetric flask, the solid was dissolved with ultrapure water and diluted to volume. • 100 mL of 0.1 M K2HPO4 solution and 30 mL of 0.1 M KH2PO4 was transferred to a 250-mL beaker and mixed. […] Sample Analysis and Data Calculation • After phase separated, the phases were physically separated, and the concentrations of compounds in each phase were determined by HPLC using the HPLC conditions and parameters in Table 5. • Distribution coefficient, referred to as Dow, was calculated as the concentration of the test compound (both ionized and unionized) in the octanol phase divided by the corresponding concentration in the aqueous phase. Log D7.6 was calculated as an average of the log 10 of Dow based on three runs. […] The mixture was then diluted to volume with purified water, mixed, and pH was measured with a pH meter. • 50 mM citrate pH 4.0 buffer: 65.3 mg of citric acid (monohydrate) and 56.9 mg of sodium citrate (dihydrate) were transferred to a 10-mL volumetric flask, purified water was added to obtain the target volume, and pH was adjust to 4.0. […]

[3] = Solubility measurement in organic solvents at 25° C. for 24 hours; conditions: for solubility at 24 h: organic solvent or mixture, thermodynamic from solid; for Final form of residual solids: XRPD
[4] = pKa measurement (Sirius T3, Yasuda-Shedlovsky extrapolation); conditions: Sirius T3, MeOH and KCl solution, pH 2 to 12, Yasuda-Shedlovsky extrapolation
Text: pKa Measurements pKa measurements were taken using a Sirius T3 instrument in a solvent (MeOH and KCl solution). The process ran from low to high pH (2 to 12). MEC Measurements

CCc1cc(F)c2nc(N3CCC(NC4CCOCC4)CC3)c(-c3nc(C)no3)c(C)c2c1.Cl [HCl salt Type A, 1-(6-ethyl-8-fluoro-4-methyl-3-(3-methyl-1,2,4-oxadiazol-5-yl)quinolin-2-yl)-N-(tetrahydro-2H-pyran-4-yl)piperidin-4-amine hydrochloride]
MEC Ave. ([1]; 235 nm): 26184.9 L/mol/cm
MEC ([1]; 235 nm, single solution, ACN:H2O (1:1, v/v), hydrochloride): 26246.5 L/mol/cm and 26123.4 L/mol/cm
MEC Ave. ([1]; 270 nm): 29997.1 L/mol/cm
MEC ([1]; 270 nm, single solution, ACN:H2O (1:1, v/v), hydrochloride): 30005.4 L/mol/cm and 29988.9 L/mol/cm
MEC Ave. ([1]; 290 nm): 13591.0 L/mol/cm
MEC ([1]; 290 nm, single solution, ACN:H2O (1:1, v/v), hydrochloride): 13615.7 L/mol/cm and 13566.4 L/mol/cm
MEC Ave. ([1]; 365 nm): 2162.6 L/mol/cm
MEC ([1]; 365 nm, single solution, ACN:H2O (1:1, v/v), hydrochloride): 2207.7 L/mol/cm and 2117.4 L/mol/cm
MEC ([1]; at all selected wavelength): > 1000 L/mol/cm
Average of Log D7.6 ([2]; 24 h): 2.87
logP ([2]; calculated: Log D7.6 + lg[1+10^(pKa-pH)]): 4
logD [2]: 2.87
solubility at 24 h ([3]; 25 °C, nonpolar solvents (hexane, heptane and toluene)): < 88 µg/mL
solubility at 24 h ([3]; 25 °C, polar solvents (DMSO and MeOH)): > 24900 µg/mL
Final form of residual solids ([3]; Acetone, 24 hrs): HCl salt Type A
Final form of residual solids ([3]; DMSO, 24 hrs, hydrochloride): Amorphous form
Final form of residual solids ([3]; DMSO, 24 hrs, listed as HCl Salt Type A, hydrochloride): Amorphons
Final form of residual solids ([3]; EtOAc (printed EtQAc), 24 hrs): HCl salt Type A
Final form of residual solids ([3]; EtOH, 24 hrs): HCl salt Type A
Final form of residual solids ([3]; Heptane, 24 hrs): HCl salt Type A
Final form of residual solids ([3]; Hexane, 24 hrs): HCl salt Type A
Final form of residual solids ([3]; IPA, 24 hrs): HCl salt Type A
Final form of residual solids ([3]; MeOH, 24 hrs): HCl salt Type A
Final form of residual solids ([3]; Toluene, 24 hrs): HCl salt Type A
solubility at 24 h ([3]; ethanol, EtOH, 25° C., 24 hrs): 3500 µg/mL
solubility at 24 h ([3]; methanol, MeOH, 25° C., 24 hrs): 24900 µg/mL
solubility at 24 h ([3]; Acetone, 25° C., 24 hrs): 91 µg/mL
solubility at 24 h ([3]; DMSO, 25° C., 24 hrs): 33500 µg/mL
solubility at 24 h ([3]; EtOAc (printed EtQAc), 25° C., 24 hrs): 11 µg/mL
solubility at 24 h ([3]; Heptane, 25° C., 24 hrs): 0.8 µg/mL
solubility at 24 h ([3]; Hexane, 25° C., 24 hrs): 0.4 µg/mL
solubility at 24 h ([3]; Toluene, 25° C., 24 hrs): 8.8 µg/mL
form change ([3]; organic solvents other than DMSO): No form change
pKa [4]: 8.68
